Test results taken from publication PMC12375981 (Protein Science : A Publication of the Protein Society, 2025).

Tests used:
DM (S1D + A191E) 3CL^pro = DM (S1D + A191E) 3CL^pro (Severe acute respiratory syndrome coronavirus 2, UniProt P0DTD1, A3454E/S3264D); format: binding, SARS‐CoV‐2
[1] = biological target: S1D + A191E 3CL^pro (double mutant, DM) (Severe acute respiratory syndrome coronavirus 2, UniProt P0DTD1, A3454E/S3264D); format: biochemical, SARS‐CoV‐2
S1D 3CL^pro [2] = biological target: T1, S1D 3CL^pro (Severe acute respiratory syndrome coronavirus 2, UniProt P0DTD1, S3264D); format: binding, SARS‐CoV‐2
S1D 3CL^pro [3] = biological target: T1, S1D 3CL^pro; format: biochemical, SARS‐CoV‐2
A191E 3CL^pro = A191E 3CL^pro (Severe acute respiratory syndrome coronavirus 2, UniProt P0DTD1, A3454E); format: biochemical, SARS‐CoV‐2
[4] = test system: E166V mutation of 3CL^pro; conditions: cited from earlier work
E166V 3CL^pro = conditions: cited from earlier work

Row | Structure (SMILES) | effect of inhibitor on monomer/dimer peaks (DM (S1D + A191E) 3CL^pro) | K D [1] [nM] | K D f c [1] [nM] | K D/f c [1] [nM] | f c [1] | inhibitor concentration at which the mutant is more active than the WT [1] [nM] | reduction in affinity for the dimer (K i) compared to the WT [1] [fold] | effect of inhibitor on monomer/dimer peaks (S1D 3CL^pro [2]) | K D (S1D 3CL^pro [3]) [nM] | K D f c (S1D 3CL^pro [3]) [nM] | K D/f c (S1D 3CL^pro [3]) [nM] | f c (S1D 3CL^pro [3]) | inhibitor concentration at which the mutant is more active than the WT (S1D 3CL^pro [3]) | inhibitor concentration for full inhibition (S1D 3CL^pro [3]) | reduction in affinity (K i) compared to the WT (S1D 3CL^pro [3]) [fold] | reduction in affinity (K i) compared to the WT (A191E 3CL^pro) [fold] | increase in EC50 [4] | increase in K i (E166V 3CL^pro)
1 | COc1cccc2[nH]c(C(=O)N[C@@H](CC(C)C)C(=O)N[C@@H](C[C@@H]3CCNC3=O)C(=O)COP(=O)(O)O)cc12 [lufotrelvir] | eliminated the monomeric peaks | 140 ± 10 | 2300 ± 300 | 9 ± 1 | 16 ± 1 | ≥ 10 | 26 | eliminated the monomeric peaks | 290 ± 30 | 6000 ± 700 | 13 ± 2 | 21 ± 1 | greater than 10 nM | exceeded 1 μM | 3.3 | 6.4 | – | –
2 | CC(C)(C)[C@H](NC(=O)C(F)(F)F)C(=O)N1C[C@H]2[C@@H]([C@H]1C(=O)N[C@H](C#N)C[C@@H]1CCNC1=O)C2(C)C [nirmatrelvir] | – | – | – | – | – | – | – | – | – | – | – | – | – | – | – | – | up to 255 fold | more than 7000 fold
